Measurements taken from PubChem BioAssay AID328 (DTP/NCI, 2004).
Where “and” joins values, the source holds several entries; their conditions need not be identical. Equal values may be shown once. Toxic doses and inconclusive results are not listed. How the source made its calls: active means survival T/C of 150% or more; inactive means T/C below 125% in these data.

System: BDF1 mice, P388 leukemia ip, median survival T/C
Assay: NCI In Vivo Anticancer Drug Screen. Data for tumor model P388 Leukemia (intraperitoneal) in B6D2F1 (BDF1) mice
Details: endpoint: median survival time, higher = longer survival
In short: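 Reported as T/C, where T is the survival measurement in dosed animals and C the same measurement in vehicle controls.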

[1] = dose: 50.0 mg/kg/injection, schedule: Q01DX009 (ip), vehicle: saline with Tween-80
[2] = dose: 100.0 mg/kg/injection, schedule: Q04DX003 (ip), vehicle: saline with Tween-80
[3] = dose: 100.0 mg/kg/injection, schedule: Q01DX009 (ip), vehicle: Klucel (hydroxypropylcellulose) (HPC)
[4] = dose: 200.0 mg/kg/injection, schedule: Q01DX009 (ip), vehicle: Klucel (hydroxypropylcellulose) (HPC)
[5] = dose: 50.0 mg/kg/injection, schedule: Q01DX009 (ip), vehicle: Klucel (hydroxypropylcellulose) (HPC)
[6] = dose: 200.0 mg/kg/injection, schedule: Q04DX003 (ip), vehicle: saline with Tween-80
[7] = dose: 400.0 mg/kg/injection, schedule: Q04DX003 (ip), vehicle: saline with Tween-80
[8] = dose: 25.0 mg/kg/injection, schedule: Q04DX003 (ip), vehicle: water
[9] = dose: 50.0 mg/kg/injection, schedule: Q04DX003 (ip), vehicle: water
[10] = dose: 100.0 mg/kg/injection, schedule: Q01DX009 (ip), vehicle: saline

Measured: T/C

OC(Cc1ccc2ccccc2n1)C(Cl)(Cl)Cl (stereo not given)
inactive: dose: 3.12 mg/kg/injection, schedule: Q01DX009 (ip), vehicle: saline with Tween-80 95 % of control | dose: 6.25 mg/kg/injection, schedule: Q01DX009 (ip), vehicle: saline with Tween-80 100 % of control | dose: 12.5 mg/kg/injection, schedule: Q01DX009 (ip), vehicle: saline with Tween-80 100 % of control | dose: 12.5 mg/kg/injection, schedule: Q04DX003 (ip), vehicle: saline with Tween-80 100 % of control | dose: 25.0 mg/kg/injection, schedule: Q01DX009 (ip), vehicle: saline with Tween-80 92 % of control | dose: 25.0 mg/kg/injection, schedule: Q04DX003 (ip), vehicle: saline with Tween-80 105 % of control | [1] 90 % of control | dose: 50.0 mg/kg/injection, schedule: Q04DX003 (ip), vehicle: saline with Tween-80 100 % of control | [2] 91 % of control

COc1cc(NS(C)(=O)=O)ccc1N
inactive: [3] 100 % of control | dose: 100.0 mg/kg/injection, schedule: Q04DX003 (ip), vehicle: Klucel (hydroxypropylcellulose) (HPC) 100 % of control | [4] 90 % of control

Nc1nc([Se])c2ncn(C3OC(CO)C(O)C3O)c2n1 (stereo not given)
inactive: dose: 32.0 mg/kg/injection, schedule: Q01DX009 (ip), vehicle: saline 100 % of control

CCOC(=O)C1=C(C)NC(C)=C(C(=O)OCC)C1c1cccc([N+](=O)[O-])c1
inactive: [5] 105 % of control | [3] 100 % of control | [4] 90 % of control

Cc1cc(Cl)nc(Nc2ccccc2)n1
inactive: dose: 3.12 mg/kg/injection, schedule: Q01DX009 (ip), vehicle: DMSO 100 % of control | dose: 6.25 mg/kg/injection, schedule: Q01DX009 (ip), vehicle: DMSO 95 % of control and 100 % of control | dose: 6.25 mg/kg/injection, schedule: Q04DX003 (ip), vehicle: DMSO 100 % of control | dose: 12.5 mg/kg/injection, schedule: Q01DX009 (ip), vehicle: DMSO 100 % of control | dose: 12.5 mg/kg/injection, schedule: Q04DX003 (ip), vehicle: DMSO 108 % of control | dose: 25.0 mg/kg/injection, schedule: Q01DX009 (ip), vehicle: DMSO 95 % of control | dose: 25.0 mg/kg/injection, schedule: Q04DX003 (ip), vehicle: DMSO 91 % of control

CCOC(=O)C(O)(NC(=O)N/N=C/c1ccccc1)C(=O)OCC
inactive: [2] 104 % of control | [6] 112 % of control | [7] 91 % of control

O=C(Nc1cccc(C(=O)Nc2ccc(C3=NCCN3)cc2)c1)c1ccc(C2=NCCN2)cc1
inactive: dose: 16.5 mg/kg/injection, schedule: Q01DX009 (ip), vehicle: saline 122 % of control

CC(C(=O)c1ccccc1)C(Cl)c1ccccc1 (stereo not given)
inactive: [1] 95 % of control | dose: 100.0 mg/kg/injection, schedule: Q01DX009 (ip), vehicle: saline with Tween-80 94 % of control | [2] 89 % of control | dose: 200.0 mg/kg/injection, schedule: Q01DX009 (ip), vehicle: saline with Tween-80 86 % of control | [6] 89 % of control | dose: 400.0 mg/kg/injection, schedule: Q01DX009 (ip), vehicle: saline with Tween-80 86 % of control | [7] 98 % of control

C1CCN[N-]C1.C1CCN[N-]C1.[Cl][Pt+2]([Cl])([Cl])[Cl]
inactive: dose: 0.78 mg/kg/injection, schedule: Q01DX009 (ip), vehicle: water 103 % of control | dose: 1.56 mg/kg/injection, schedule: Q01DX009 (ip), vehicle: water 112 % of control | dose: 3.12 mg/kg/injection, schedule: Q01DX009 (ip), vehicle: water 120 % of control | dose: 6.25 mg/kg/injection, schedule: Q01DX009 (ip), vehicle: water 106 % of control and 111 % of control | [8] 104 % of control | [9] 95 % of control

CCCCc1c2c(nn1C(C)=O)C(=O)C=C(Nc1ccccc1)C2=O
inactive: [2] 100 % of control | [6] 99 % of control

NS(=O)(=O)c1ccc(NC(=O)/C=C/C(=O)O)cc1
inactive: [2] 100 % of control | [6] 100 % of control | [7] 95 % of control

CC1=CC(=O)N(O)CCCC(N)C(=O)OCCC(C)=CC(=O)N(O)CCCC(N)C(=O)OCCC(C)=CC(=O)N(O)CCCC(N)C(=O)OCC1 (stereo not given)
inactive: dose: 3.0 mg/kg/injection, schedule: Q01DX009 (ip), vehicle: Klucel (hydroxypropylcellulose) (HPC) 89 % of control | dose: 6.0 mg/kg/injection, schedule: Q01DX009 (ip), vehicle: Klucel (hydroxypropylcellulose) (HPC) 87 % of control | dose: 12.0 mg/kg/injection, schedule: Q01DX009 (ip), vehicle: Klucel (hydroxypropylcellulose) (HPC) 87 % of control | dose: 24.0 mg/kg/injection, schedule: Q01DX009 (ip), vehicle: Klucel (hydroxypropylcellulose) (HPC) 92 % of control

NC(=O)C(CO)NC(=O)OCc1ccccc1 (stereo not given)
inactive: [8] 110 % of control | [9] 103 % of control | dose: 100.0 mg/kg/injection, schedule: Q04DX003 (ip), vehicle: water 100 % of control | dose: 200.0 mg/kg/injection, schedule: Q04DX003 (ip), vehicle: water 100 % of control | dose: 400.0 mg/kg/injection, schedule: Q04DX003 (ip), vehicle: water 103 % of control

CC1(C)SC2C(NC(=O)Cc3ccccc3)C(=O)N2C1C(=O)O (stereo not given)
inactive: [10] 90 % of control | dose: 400.0 mg/kg/injection, schedule: Q01DX009 (ip), vehicle: saline 100 % of control

Clc1ccc(C(Cl)(Cl)Cl)cc1Cl
inactive: dose: 12.5 mg/kg/injection, schedule: Q01DX009 (ip), vehicle: Klucel (hydroxypropylcellulose) (HPC) 95 % of control | dose: 25.0 mg/kg/injection, schedule: Q01DX009 (ip), vehicle: Klucel (hydroxypropylcellulose) (HPC) 100 % of control | [5] 100 % of control

CSCCC(NC(C)=O)C(=O)O (stereo not given)
inactive: [10] 96 % of control | dose: 100.0 mg/kg/injection, schedule: Q04DX003 (ip), vehicle: saline 87 % of control | dose: 200.0 mg/kg/injection, schedule: Q01DX009 (ip), vehicle: saline 88 % of control | dose: 200.0 mg/kg/injection, schedule: Q04DX003 (ip), vehicle: saline 87 % of control | dose: 400.0 mg/kg/injection, schedule: Q04DX003 (ip), vehicle: saline 91 % of control

CCCC(Sc1nc(N)nc2nc[nH]c12)C(=O)O (stereo not given)
inactive: dose: 100.0 mg/kg/injection, schedule: Q01DX009 (ip), vehicle: saline sonified 115 % of control | dose: 100.0 mg/kg/injection, schedule: Q04DX003 (ip), vehicle: saline sonified 109 % of control | dose: 200.0 mg/kg/injection, schedule: Q04DX003 (ip), vehicle: saline sonified 118 % of control | dose: 400.0 mg/kg/injection, schedule: Q01DX009 (ip), vehicle: saline sonified 100 % of control | dose: 400.0 mg/kg/injection, schedule: Q04DX003 (ip), vehicle: saline sonified 109 % of control

CP(O)(=S)C1CCCCC1 (stereo not given) (tested in a mixture with another compound)
inactive: dose: 50.0 mg/kg/injection, schedule: Q01DX005 (ip), vehicle: saline 94 % of control | dose: 100.0 mg/kg/injection, schedule: Q01DX005 (ip), vehicle: saline 91 % of control | dose: 200.0 mg/kg/injection, schedule: Q01DX005 (ip), vehicle: saline 90 % of control

CC(=O)OC1CCC(C)(C2CCC3(C)C(C(C)CCCC(C)C)CCC3C2CC(=O)O)C(=O)C1 (stereo not given)
inactive: [3] 90 % of control | [4] 90 % of control | dose: 400.0 mg/kg/injection, schedule: Q01DX009 (ip), vehicle: Klucel (hydroxypropylcellulose) (HPC) 95 % of control
